Assays:
[1] = target: T1, OXA-24/40 (Acinetobacter baumannii, UniProt Q8RLA6); test: kinetic competition with ampicillin as reporter substrate; assay type: biochemical
[2] = target: T1, OXA-24/40; test: competitive inhibition of ampicillin hydrolysis; assay type: biochemical
[3] = target: OXA-24/40 (Acinetobacter baumannii, UniProt Q8RLA6, V130D); test: SDS-PAGE fluorescent acyl-enzyme detection, single-turnover conditions; assay type: binding

| Structure (SMILES) | Ki [1] [nM] | Ki [2] [nM] | SDS-PAGE fluorescent acyl-enzyme detection, single-turnover conditions [3] |
| --- | --- | --- | --- |
| C[C@@H](O)[C@H]1C(=O)N2C(C(=O)O)=C(S[C@@H]3CN[C@H](C(=O)N(C)C)C3)[C@H](C)[C@H]12 [meropenem] | 18 | – | – |
| C[C@@H](O)[C@H]1C(=O)N2C(C(=O)O)=C(S[C@H]3C[C@@H](C(=O)N(C)C)N(C(=S)Nc4ccc5c(c4)C(=O)OC54c5ccc(O)cc5Oc5cc(O)ccc54)C3)[C@H](C)[C@H]12 [FM, fluorescein-meropenem] | – | 43 | All Val130 substitutions showed some degree of fluorescence labeling, but the Val130Asp, Val130Thr and Val130Asn substitutions most severely reduced deacylation |
